Data reported in patent publication US20260248922A1, “TREATMENT OF SIGNS, SYMPTOMS AND/OR COMPLICATIONS OF VIRAL, BACTERIAL, PROTOZOAL, AND/OR FUNGAL INFECTIONS BY HIGH PENETRATION PRODRUGS” (priority 2022, published 2026).

Columns and labels:
paw edema = test: Antiinflammatory activity, carrageenan paw edema in rats; format: in vivo, Wistar Rats; conditions: transdermal, 20 mg/kg
[1] = Skin penetration through rabbit skin in vitro, modified Franz cells; conditions: receiving fluid pure water
LPS-induced fever = test: Antipyretic activity, fever induced by LPS in rats; format: in vivo, Sprague Dawley rats; conditions: transdermal, 20 mg/kg
Protocol: The body temperature of rats was taken at 0 (2 hours after the challenge), 90 min, 180 min, and 270 min after the administration of the test compounds.

H1N1 virus = H1N1 virus infection mouse model (Example 65); format: in vivo, mice; conditions: transdermal once a day
Protocol: (§1) A total of seventy mice (7 groups, 10/group) were used in this study. At day 0, mice were anesthetized with isoflurane and held in a dorsal recumbent position for administration of 0.1×TCID50/mouse virus (new batch) by internasal instillation, from day 2 post challenge, mice were received a single dose of different concentrations of test article or vehicle control once a day up to 15th day with dose initiation on day 2 post challenge. Group 1 served as an infected control group and was treated with vehicle (35% ethanol). […] Mice were observed following viral challenge for clinical signs of illness including body weights, health score, morbidity and mortality.
Lung lesions and peribronchiolitis of all deceased and surviving animals were characterized (Table 7).

MRSA = test: Sepsis model of MRSA infection in mice (Example 79); format: in vivo, C57/BL6 mice; conditions: transdermal once a day
Source text: as §1, with “seventy C57/BL6” for “seventy”, “of 2×10^7CFU S. aureus” for “of 0.1×TCID50/mouse virus (new batch)”, “by intraperitoneal (IP) injections,” for “by internasal instillation,”, “from hour” for “from day”, “on hour” for “on day”, “following MRSA” for “following viral”

[2] = test system: cecal slurry-induced sepsis; test: Cecal slurry-induced sepsis mouse model (Example 75); format: in vivo, C57/BL6 mice; conditions: transdermal once a day
Protocol: as §1, with “seventy C57/BL6” for “seventy”, “of 10 mg/mouse cecal slurry” for “of 0.1×TCID50/mouse virus (new batch)”, “by intraperitoneal (IP) injections,” for “by internasal instillation,”, “from hour” for “from day”, “on hour” for “on day”

COVID-19 [3] = test: COVID-19 infection mouse model (Example 70); format: in vivo, hACE2 mice; conditions: transdermal once a day
Protocol: as §1, with “seventy hACE2” for “seventy”, “3×10 PFU/mouse COVID-19” for “0.1×TCID50/mouse virus (new batch)”, “1” for “2”
Lung lesions and peribronchiolitis of all deceased and surviving animals were characterized (Table 17).

COVID-19 [4] = test: Phase 2 placebo-controlled study in COVID-19 infection in hospitalized adults (Example 81); format: in vivo, human; conditions: hospitalized COVID-19 patients, 7% solution in 15% ethanol sprayed on skin BID for 28 days
Source text: Patients cannot be enrolled or randomized before all eligibility criteria (including test results) are confirmed.
Inclusion criteria: • 1. Admitted to a hospital with pulmonary symptoms of active COVID-19. • 2. Patient (or legally authorized representative) provides informed consent prior to initiation of any study procedures. • 3. Patient (or legally authorized representative) understands and agrees to comply with planned study procedures. • 4. Male or nonpregnant female adult ≥18 years of age at time of enrollment. • 5. Has laboratory confirmed severe acute respiratory syndrome coronavirus 2 (COVID-19) infection as determined by polymerase chain reaction (PCR) or other commercial or public health assay (serology is not acceptable) in any specimen, as documented by either of the following: • a. Laboratory confirmed COVID-19 infection by method as defined above, in sample collected <72 hours prior to randomization; OR • b. […] Has a room-air SpO2<93% and a score of 4 (hospitalized, oxygen by mask or nasal prongs), or room-air SpO2<93% and a score of 5 (hospitalized, noninvasive ventilation or high-flow oxygen), or a score 6 (hospitalized, intubation and mechanical ventilation) in the ordinal scale, which specifically is as follows: • 0) Uninfected, no clinical or virological evidence of infection • 1) Ambulatory (not diagnosed), no limitations of activities. • 2) Ambulatory (not diagnosed), limitation on activities and/or requiring home oxygen • 3) Diagnosed (mild disease), no requiring supplemental oxygen; • 4) Diagnosed (moderate disease), requiring supplemental oxygen (by mask or nasal prongs)—requiring ongoing medical care (COVID-19 related or otherwise); • 5) Diagnosed (severe disease), non-invasive ventilation or high-flow oxygen; • 6) Diagnosed (severe disease), intubation and mechanical ventilation; • 7) Diagnosed (severe disease), ventilation+additional organ support-pressors, RRT, or extracorporeal membrane oxygenation (ECMO); • 8) Death. • 7. […]

[5] = 2 h (before test articles treatment)
[6] = 6 h (4 hours after administration)
[7] = time 0 (before carrageenan challenge)
[8] = T = 0 min (2 hours after LPS challenge)

SMILES: Cl.O=C(Cc1ccccc1Nc1c(Cl)cccc1Cl)OCC1CCCN1 (stereo not shown) [Example 1]
- Paw Volume Mean (paw edema; [5]): 1.719 mL
- Paw Volume Mean (paw edema; [6]): 1.314 mL
- Paw Volume Mean (paw edema; [7]): 1.245 mL
- The cumulative amount of test compounds ([1]; 1 h): 0.48 mg
- The cumulative amount of test compounds ([1]; 2 h): 0.99 mg
- The cumulative amount of test compounds ([1]; 4 h): 2.03 mg
- The cumulative amount of test compounds ([1]; 8 h): 4.09 mg
- body temperature (Mean) (LPS-induced fever; [8]): 38.38
- body temperature (Mean) (LPS-induced fever; T = 90 min): 37.10
- body temperature (Mean) (LPS-induced fever; T = 180 min): 36.42
- body temperature (Mean) (LPS-induced fever; T = 270 min): 36.41
- survival (H1N1 virus; group 5, low dose 24.6 mg/kg): 70%
- survival (H1N1 virus; group 6, mid dose 49.2 mg/kg): 60%
- survival (H1N1 virus; group 7, high dose 98.4 mg/kg): 50%

SMILES: CCN(CC)CCOC(=O)C(C)c1ccc(CC(C)C)cc1.Cl (stereo not shown) [Example 2]
- survival (MRSA; group 5, low dose 24.6 mg/kg): 40%
- survival (MRSA; group 6, mid dose 49.2 mg/kg): 60%
- survival (MRSA; group 7, high dose 98.4 mg/kg): 50%
- Paw Volume Mean (paw edema; [5]): 1.697 mL
- Paw Volume Mean (paw edema; [6]): 1.402 mL
- Paw Volume Mean (paw edema; [7]): 1.225 mL
- survival ([2]; group 5, low dose 24.6 mg/kg): 50%
- survival ([2]; group 6, mid dose 49.2 mg/kg): 50%
- survival ([2]; group 7, high dose 98.4 mg/kg): 40%
- survival (COVID-19 [3]; group 5, low dose 24.6 mg/kg): 60%
- survival (COVID-19 [3]; group 6, mid dose 49.2 mg/kg): 50%
- survival (COVID-19 [3]; group 7, high dose 98.4 mg/kg): 50%
- body temperature (Mean) (LPS-induced fever; [8]): 38.31
- body temperature (Mean) (LPS-induced fever; T = 90 min): 37.57
- body temperature (Mean) (LPS-induced fever; T = 180 min): 36.86
- body temperature (Mean) (LPS-induced fever; T = 270 min): 36.63

SMILES: CCN(CC)CCOC(=O)c1ccccc1OC(C)=O.Cl [Example 4]
- hospital stay time, average (COVID-19 [4]): about 4 days
- time to an improvement of 2 categories using 9-point ordinal scale, average (COVID-19 [4]): about 3 days
- time to maintain peripheral capillary oxygen saturation (SpO2) of >93% without oxygen support, average (COVID-19 [4]): about 3 days

SMILES: COc1ccc2cc(C(C)C(=O)OCC3CCCN3)ccc2c1.Cl (stereo not shown) [Example 16, (pyrrolidin-2-yl)methyl 2-(6-methoxy-2-naphthyl) propanoate hydrochloride]
- survival (MRSA; group 2, low dose 25.1 mg/kg): 20%
- survival (MRSA; group 3, mid dose 50.2 mg/kg): 30%
- survival (MRSA; group 4, high dose 100.3 mg/kg): 40%
- survival (COVID-19 [3]; group 2, low dose 25.1 mg/kg): 30%
- survival (COVID-19 [3]; group 3, mid dose 50.2 mg/kg): 50%
- survival (COVID-19 [3]; group 4, high dose 100.3 mg/kg): 50%
- body temperature (Mean) (LPS-induced fever; [8]): 38.30
- body temperature (Mean) (LPS-induced fever; T = 90 min): 37.38
- body temperature (Mean) (LPS-induced fever; T = 180 min): 36.79
- body temperature (Mean) (LPS-induced fever; T = 270 min): 36.53
- survival (H1N1 virus; group 2, low dose 25.1 mg/kg): 20%
- survival (H1N1 virus; group 3, mid dose 50.2 mg/kg): 20%
- survival (H1N1 virus; group 4, high dose 100.3 mg/kg): 40%
